# How the values were obtained:
# [1] = system: hCAR; test: hCAR nuclear translocation assay in HPH; type: cell-based, human; details: Ad-EYFP-hCAR-infected HPH, 1 μM, 8 h
# [2] = cited from earlier work
# [3] = target: T1, hCAR (Homo sapiens, UniProt Q14994); test: hCAR agonist luciferase reporter gene assay; type: cell-based; details: for fold decrease in potency (EC50) compared to compound 2: hCAR EC50 vs parent compound 2; for hCAR agonist activity (in words): hCAR luciferase reporter
# T1 sequence (Q14994 1-348 isoform Q14994-2): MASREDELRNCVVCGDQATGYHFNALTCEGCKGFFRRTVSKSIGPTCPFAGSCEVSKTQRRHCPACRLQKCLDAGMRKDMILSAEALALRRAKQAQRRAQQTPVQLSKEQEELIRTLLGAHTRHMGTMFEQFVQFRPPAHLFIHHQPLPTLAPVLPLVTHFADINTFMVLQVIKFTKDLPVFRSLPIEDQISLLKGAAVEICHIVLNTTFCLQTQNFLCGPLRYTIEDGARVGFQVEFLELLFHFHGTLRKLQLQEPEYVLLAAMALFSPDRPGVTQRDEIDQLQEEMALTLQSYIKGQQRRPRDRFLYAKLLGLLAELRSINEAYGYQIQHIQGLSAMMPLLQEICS
# T1 sequence (P19793 1-462 partner): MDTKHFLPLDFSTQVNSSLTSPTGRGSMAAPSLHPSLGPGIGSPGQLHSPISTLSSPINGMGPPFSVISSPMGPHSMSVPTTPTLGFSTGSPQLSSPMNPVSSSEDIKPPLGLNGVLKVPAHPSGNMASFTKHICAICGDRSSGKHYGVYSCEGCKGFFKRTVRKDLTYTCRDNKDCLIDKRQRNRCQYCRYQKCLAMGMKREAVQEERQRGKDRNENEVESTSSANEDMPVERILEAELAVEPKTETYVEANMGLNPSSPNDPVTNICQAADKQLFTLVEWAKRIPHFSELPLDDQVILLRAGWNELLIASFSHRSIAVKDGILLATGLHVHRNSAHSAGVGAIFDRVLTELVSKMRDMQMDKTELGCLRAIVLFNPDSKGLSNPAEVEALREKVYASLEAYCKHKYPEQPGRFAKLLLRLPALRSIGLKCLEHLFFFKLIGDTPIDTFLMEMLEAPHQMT
# [4] = target: T2, hPXR (Homo sapiens, UniProt O75469); test: HepG2 cell reporter assay, hPXR activation; type: cell-based; details: 1 μM; for hPXR activation in HepG2 cell reporter assay (in words): normalized against rifampicin; for selectivity for hCAR over hPXR (in words): HepG2 cell reporter assays
# T2 sequence (O75469 1-434): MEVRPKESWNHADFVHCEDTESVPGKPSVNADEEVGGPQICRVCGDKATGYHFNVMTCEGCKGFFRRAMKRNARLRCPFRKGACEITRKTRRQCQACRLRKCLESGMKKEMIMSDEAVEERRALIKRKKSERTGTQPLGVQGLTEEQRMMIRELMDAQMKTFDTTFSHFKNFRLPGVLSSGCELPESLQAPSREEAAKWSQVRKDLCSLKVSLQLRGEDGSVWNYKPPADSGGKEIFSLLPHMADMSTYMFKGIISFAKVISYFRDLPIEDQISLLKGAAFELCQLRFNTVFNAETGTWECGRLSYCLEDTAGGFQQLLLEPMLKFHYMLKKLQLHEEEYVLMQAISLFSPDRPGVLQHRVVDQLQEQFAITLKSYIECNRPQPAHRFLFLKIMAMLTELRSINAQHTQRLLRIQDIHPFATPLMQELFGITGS
# [5] = system: hCAR; test: HepG2 cell reporter assay, hCAR activation; type: cell-based, human; details: 1 μM; normalized against CITCO
# [6] = Stability; type: physicochemical
# [7] = system: SU-DHL-4 cells; test: CHOP-mediated cytotoxicity in HPH/SU-DHL-4 co-culture; type: cell-based, human
compound,measurement,setting,value
"Clc1ccc(-c2nc3sccn3c2/C=N/OCc2ccc(Cl)c(Cl)c2)cc1 [CITCO, 6-(4-chlorophenyl)imidazo-[2,1-b]thiazole-5-carbaldehyde-O-(3,4-dichlorobenzyl)oxime, reference compound]",hCAR translocation from cytoplasm to nucleus (in words),[1],efficiently translocated into the nucleus
same,stability of results in hCAR luciferase gene reporter assay (in words),[2],unstable results
"Clc1ccc(-c2nc3sccn3c2CNCCc2ccc(Cl)c(Cl)c2)cc1 [Compound 2, N-((6-(4-Chlorophenyl)imidazo[2,1-b]thiazol-5-yl)methyl)-2-(3,4-dichlorophenyl)ethan-1-amine]",fold increase in potency compared to CITCO,[3]; hCAR EC50 vs CITCO,1.4 fold
"Clc1ccc(-c2nc3sccn3c2COCCc2ccc(Cl)c(Cl)c2)cc1 [Compound 5, 6-(4-Chlorophenyl)-5-((3,4-dichlorophenethoxy)methyl)imidazo[2,1-b]thiazole]",hPXR activation in HepG2 cell reporter assay (in words),[4],significantly activated hPXR
"Cc1cn2c(CNCCc3ccc(Cl)c(Cl)c3)c(-c3ccc(Cl)cc3)nc2s1 [Compound 6, N-((6-(4-Chlorophenyl)-2-methylimidazo[2,1-b]thiazol-5-yl)methyl)-2-(3,4-dichlorophenyl)ethan-1-amine]",fold decrease in potency (EC50) compared to compound 2,[3],5.5 fold
"Clc1ccc(-c2nc3occn3c2CNCCc2ccc(Cl)c(Cl)c2)cc1 [Compound 7, N-((6-(4-Chlorophenyl)imidazo[2,1-b]oxazol-5-yl)methyl)-2-(3,4-dichlorophenyl)ethan-1-amine]",fold decrease in potency (EC50) compared to compound 2,[3],3.2 fold
same,hCAR activation in HepG2 cell reporter assay (in words),[5],slight decrease in hCAR activation potency
same,selectivity for hCAR over hPXR (in words),[4],good specificity for hCAR
"Clc1ccc(-c2nc3ncccn3c2CNCCc2ccc(Cl)c(Cl)c2)cc1 [Compound 8, N-((2-(4-Chlorophenyl)imidazo[1,2-a]pyrimidin-3-yl)methyl)-2-(3,4-dichlorophenyl)ethan-1-amine]",fold decrease in potency (EC50) compared to compound 2,[3],2 fold
same,hCAR activation in HepG2 cell reporter assay (in words),[5],less potent compared to CITCO
"Clc1ccc(CCNCc2c(-c3ccc(Cl)cc3)nc3sccn23)cc1 [Compound 9, 2-(4-Chlorophenyl)-N-((6-(4-chlorophenyl)imidazo[2,1-b]thiazol-5-yl)methyl)ethan-1-amine]",fold decrease in potency (EC50) compared to compound 2,[3],1.6 fold
same,selectivity for hCAR over hPXR (in words),[4],maintaining selectivity for hCAR against hPXR
"Clc1ccc(-c2nc3sccn3c2CNCCc2cccc(Cl)c2)cc1 [Compound 10, 2-(3-Chlorophenyl)-N-((6-(4-chlorophenyl)imidazo[2,1-b]thiazol-5-yl)methyl)ethan-1-amine]",fold decrease in potency (EC50) compared to compound 2,[3],7 fold
"Clc1ccc(-c2nc3sccn3c2CNCCc2ccccc2)cc1 [Compound 14, N-((6-(4-Chlorophenyl)imidazo[2,1-b]thiazol-5-yl)methyl)-2-phenylethan-1-amine]",hCAR agonist activity (in words),[3],potent hCAR agonist
same,selectivity for hCAR over hPXR (in words),[4],maintaining selectivity for hCAR against hPXR
"Clc1ccc(-c2nc3sccn3c2CNCc2ccccc2)cc1 [Compound 15, N-Benzyl-1-(6-(4-chlorophenyl)imidazo[2,1-b]thiazol-5-yl)methanamine]",fold decrease in potency compared to compound 14,"[3]; hCAR EC50, analog one CH2 shorter than 14",over 11 fold
"Clc1ccc(-c2nc3sccn3c2CNC2Cc3ccccc3C2)cc1 [Compound 17, N-((6-(4-Chlorophenyl)imidazo[2,1-b]thiazol-5-yl)methyl)-2,3-dihydro-1H-inden-2-amine]",selectivity for hCAR over hPXR (in words),[4],maintaining selectivity for hCAR against hPXR
"Clc1ccc(-c2nc3sccn3c2CNc2ccc3ccccc3c2)cc1 [Compound 18, N-((6-(4-Chlorophenyl)imidazo[2,1-b]thiazol-5-yl)methyl)naphthalen-2-amine]",hCAR agonist activity (in words),[3],inactive
"CCc1nc2sccn2c1CNCCc1ccc(Cl)c(Cl)c1 [Compound 19, 2-(3,4-Dichlorophenyl)-N-((6-ethylimidazo[2,1-b]thiazol-5-yl)methyl)ethan-1-amine]",hCAR agonist activity (in words),[3],dramatic drop in hCAR activity
"Clc1cccc(-c2nc3sccn3c2CNCCc2ccc(Cl)c(Cl)c2)c1 [Compound 20, N-((6-(3-Chlorophenyl)imidazo[2,1-b]thiazol-5-yl)methyl)-2-(3,4-dichlorophenyl)ethan-1-amine]",fold decrease in potency (EC50) compared to compound 2,[3],2.3 fold
"FC(F)(F)c1ccc(-c2nc3sccn3c2CNCCc2ccc(Cl)c(Cl)c2)cc1 [Compound 22, 2-(3,4-Dichlorophenyl)-N-((6-(4-(trifluoromethyl)phenyl)imidazo[2,1-b]thiazol-5-yl)methyl)ethan-1-amine]",hCAR agonist activity (in words),[3],much weaker agonist
"Fc1ccc(-c2nc3sccn3c2CNCCc2ccc(Cl)c(Cl)c2)cc1 [Compound 23, 2-(3,4-Dichlorophenyl)-N-((6-(4-fluorophenyl)imidazo[2,1-b]thiazol-5-yl)methyl)ethan-1-amine]",hCAR activation in HepG2 cell reporter assay (in words),[5],slightly decreased activation potency
"Clc1ccc(CCNCc2c(-c3ccccc3)nc3sccn23)cc1Cl [Compound 24, 2-(3,4-Dichlorophenyl)-N-((6-phenylimidazo[2,1-b]thiazol-5-yl)methyl)ethan-1-amine]",hCAR activation in HepG2 cell reporter assay (in words),[5],slightly decreased activation potency
"N#Cc1ccc(-c2nc3sccn3c2CNCCc2ccc(Cl)c(Cl)c2)cc1 [Compound 27, 4-(5-(((3,4-Dichlorophenethyl)amino)methyl)imidazo[2,1-b]thiazol-6-yl)benzonitrile]",hCAR agonist activity (in words),[3],significantly less active
"CC(C)(C)c1ccc(-c2nc3sccn3c2CNCCc2ccc(Cl)c(Cl)c2)cc1 [Compound 28, N-((6-(4-(tert-Butyl)phenyl)imidazo[2,1-b]thiazol-5-yl)methyl)-2-(3,4-dichlorophenyl)ethan-1-amine]",hCAR agonist activity (in words),[3],significantly less active
"Clc1ccc(CCNCc2c(-c3ccc4ccccc4c3)nc3sccn23)cc1Cl [Compound 29, 2-(3,4-Dichlorophenyl)-N-((6-(naphthalen-2-yl)imidazo[2,1-b]thiazol-5-yl)methyl)ethan-1-amine]",fold decrease in potency (EC50) compared to compound 2,[3],3 fold
same,hCAR activation in HepG2 cell reporter assay (in words),[5],slight increase in activation of hCAR
same,selectivity for hCAR over hPXR (in words),[4],retained selectivity for hCAR over hPXR
"c1ccc(CCNCc2c(-c3ccc4ccccc4c3)nc3sccn23)cc1 [Compound 30, N-((6-(Naphthalen-2-yl)imidazo[2,1-b]thiazol-5-yl)methyl)-2-phenylethan-1-amine]",hPXR activation in HepG2 cell reporter assay (in words),[4],significantly activated hPXR
"c1ccc2c(c1)CC(NCc1c(-c3ccc4ccccc4c3)nc3sccn13)C2 [Compound 31, N-((6-(Naphthalen-2-yl)imidazo[2,1-b]thiazol-5-yl)methyl)-2,3-dihydro-1H-inden-2-amine]",hCAR activation in HepG2 cell reporter assay (in words),[5],enhanced hCAR activation over CITCO
same,hPXR activation in HepG2 cell reporter assay (in words),[4],slightly increased
"c1ccc2c(c1)CC(NCc1c(-c3ccc4ccccc4c3)nc3occn13)C2 [DL5016, N-((6-(Naphthalen-2-yl)imidazo[2,1-b]oxazol-5-yl)methyl)-2,3-dihydro-1H-inden-2-amine]",hCAR activation in HepG2 cell reporter assay (in words),[5],significant improvement in hCAR activation over CITCO
same,selectivity for hCAR over hPXR (in words),[4],maintaining selectivity over hPXR
same,stability (in words),[6],excellent stability
same,hCAR translocation from cytoplasm to nucleus (in words),[1],efficiently translocated into the nucleus
same,effect on CHOP-induced cytotoxicity in SU-DHL-4 cells (in words),"[7]; DL5016 1 μM with CHOP, 24 h",significantly enhanced CHOP-induced cytotoxicity
same,cytotoxicity of compound alone in co-cultured SU-DHL-4 cells (in words),[7]; control experiment without CHOP,did not show cytotoxicity

# — paper PMC6718324 (European journal of medicinal chemistry, 2019)
